From patent US8592403B2, “Diazepine and diazocane compounds as MC4 agonists” (Pfizer Limited, priority 2008, dated 2013)

How the values were obtained:
CYP3A4 = molecular target: T1, CYP3A4 (Homo sapiens, UniProt P08684); test: High density DDI 3 μM cocktail screen in human liver microsomes, midazolam probe; assay type: in vitro ADME; details: human, liver microsomes, probe midazolam, read-out: % inhibition 3A4 @ 3 μM
T1 construct: utilizes human liver microsomes together with isoform-specific clinical drug probes; from tissue; host or cells: human liver microsomes
Outline: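 Pooled human liver microsomes incubated with isoform-specific clinical probe substrates as a cocktail (midazolam for CYP3A4), with or without test compound at 3 μM. Metabolite formation followed over time by LC-MS/MS. Inhibition expressed as a single-point percentage.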

human MC3 receptors = molecular target: T2, human MC3 receptors (Homo sapiens, UniProt P41968); test: In vitro agonist potency (EC50) at melanocortin receptor type 3, cAMP in recombinant cell line; assay type: cell-based
T2 construct: stably transfected with full length cDNA encoding human MC1 or MC3 receptors; expressed in transfected cells
Method: Measurement of In Vitro Agonist Potency (EC50) of Compounds Against Melanocortin Receptors Type 1 and 3 (MC1 and MC3).
Activation of melanocortin (MC) receptors by agonists results in activation of intracellular adenylate cyclase enzymes that synthesise the second messenger signalling molecule, adenosine 3′,5′-cyclic monophosphate (cAMP). Changes in cAMP levels following treatment of recombinant MC1 and MC3 cell lines with test compound were measured and an MC1 and MC3 potency estimate (EC50) calculated as follows: […]
Human embryonic kidney (HEK) or Chinese hamster ovary cell lines stably transfected with full length cDNA encoding human MC1 or MC3 receptors, respectively, were established using standard molecular biology methods. Test compounds were dissolved in dimethyl sulfoxide (DMSO) at 4 mM. 11 point half log unit increment dilution series of test compound, typically starting at 50 uM were prepared in a buffer comprised of phosphate buffered saline (PBS), 2.5% DMSO and 0.05% pluronic F-127 surfactant. Freshly cultured cells at 80-90% confluence were harvested and re-suspended in Dulbecco's Modified Eagle's Medium (DMEM). Cells (10,000 for MC3, 20,000 for MC1) were added to the test compound dilution series in a 384 well assay plate and incubated for 1 hour at 37° C. The relative cAMP concentration in each well was then measured using a β-galactosidase enzyme fragment complementation method purchased in kit form as the Discoverx cAMP II kit from GE Healthcare/Amersham Biosciences UK. In the case of MC1,3-Isobutyl-1-methylxanthine (IBMX) at a concentration of 750 μM was included in DMEM as the cells were re-suspended for assay. […] Sigmoidal curves were fitted to plots of log10 inhibitor concentration vs percent effect using a custom made software application called SIGHTS and EC50 estimates determined by the software as the concentration of test compound giving an effect half way between the bottom and top asymptotes of the sigmoidal dose response curve. Each experiment included an EC50 determination for alpha melanocyte stimulating hormone, which was used as a standard to track assay consistency and allow fair comparison between EC50 estimates obtained in different experiments.

T2 sequence (P41968 whole entry): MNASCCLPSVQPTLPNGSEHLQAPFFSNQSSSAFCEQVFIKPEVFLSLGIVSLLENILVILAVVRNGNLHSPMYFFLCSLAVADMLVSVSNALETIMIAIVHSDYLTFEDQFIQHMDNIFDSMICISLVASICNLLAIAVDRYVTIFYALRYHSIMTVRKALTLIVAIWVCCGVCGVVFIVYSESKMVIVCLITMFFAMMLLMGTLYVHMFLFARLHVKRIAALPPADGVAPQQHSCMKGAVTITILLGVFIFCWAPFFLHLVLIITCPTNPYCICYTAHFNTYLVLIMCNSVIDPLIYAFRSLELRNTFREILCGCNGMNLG
T1 sequence (P08684 whole entry, canonical isoform): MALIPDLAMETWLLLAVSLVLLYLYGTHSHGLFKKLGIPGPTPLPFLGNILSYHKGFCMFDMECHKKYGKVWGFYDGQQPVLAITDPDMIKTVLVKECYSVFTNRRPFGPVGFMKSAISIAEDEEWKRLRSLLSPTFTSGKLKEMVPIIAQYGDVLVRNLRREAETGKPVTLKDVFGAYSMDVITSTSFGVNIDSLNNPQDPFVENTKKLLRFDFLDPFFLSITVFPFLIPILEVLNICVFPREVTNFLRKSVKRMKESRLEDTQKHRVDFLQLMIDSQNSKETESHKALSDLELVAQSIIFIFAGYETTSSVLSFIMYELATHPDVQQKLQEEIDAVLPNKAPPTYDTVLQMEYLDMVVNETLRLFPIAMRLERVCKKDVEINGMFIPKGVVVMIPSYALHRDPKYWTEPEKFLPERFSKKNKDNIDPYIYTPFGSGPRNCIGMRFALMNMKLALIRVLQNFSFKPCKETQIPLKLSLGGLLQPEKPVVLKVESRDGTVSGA

SMILES | inhibition at 3 µM (CYP3A4) [%] | EC50 (human MC3 receptors) [nM]
CS(=O)(=O)N1CCN(C(=O)[C@@H]2CN(c3ccc(=O)[nH]n3)C[C@H]2c2ccc(F)cc2F)CCCC1c1ccc(Cl)cc1 (mixture of isomers) [Example 79] | 51 | 1820
COc1ccc([C@@H]2CN(c3ccc(=O)n(C)n3)C[C@H]2C(=O)N2CCCC(c3ccc(Cl)cc3)N(S(C)(=O)=O)CC2)c(F)c1 (single isomer, unassigned) [Example 117] | 44.5 | 8360
CCC(=O)N1CCN(C(=O)[C@@H]2CN(C(C)(C)C)C[C@H]2c2ccc(F)cc2F)CCC[C@H]1c1ccc(Cl)cc1 [Example 10] | 37.1 | 4190
CC(C)C(=O)N1CCN(C(=O)[C@@H]2CN(C(C)(C)C)C[C@H]2c2ccc(F)cc2F)CCC[C@H]1c1ccc(Cl)cc1 [Example 11] | 53.5 | 3390
CC(C)(C)N1C[C@@H](C(=O)N2CCC[C@@H](c3ccc(Cl)cc3)N(C(=O)C3CCC3)CC2)[C@H](c2ccc(F)cc2F)C1 [Example 14] | 56.1 | 8590
CC(C)(C)C(=O)N1CCN(C(=O)[C@@H]2CN(C(C)(C)C)C[C@H]2c2ccc(F)cc2F)CCC[C@H]1c1ccc(Cl)cc1 [Example 15] | 64.4 | 3180
CC(C)C(=O)N1CCN(C(=O)[C@@H]2CN(C(C)(C)C)C[C@H]2c2ccc(Cl)cn2)CCC[C@H]1c1ccc(Cl)cc1 [Example 20, 1-{[(3S,4S)-1-tert-butyl-4-(5-chloropyridin-2-yl)pyrrolidin-3-yl]carbonyl}-5S-(4-chlorophenyl)-4-isobutyryl-1,4-diazocane] | 50.2 | 1660
COC(=O)N1CCN(C(=O)[C@@H]2CN(c3ccc(=O)n(C)n3)C[C@H]2c2ccc(F)cc2F)CCC[C@@H]1c1ccc(Cl)cc1 [Example 56] | 54.2 | 1220
COC(=O)N1CCN(C(=O)[C@@H]2CN(c3ccc(=O)n(C)n3)C[C@H]2c2ccc(F)cc2F)CCC[C@H]1c1ccc(Cl)cc1 [Example 66, methyl (8S-4-chlorophenyl)-4-{[(3S,4R)-4-(2,4-difluorophenyl)-1-(1-methyl-6-oxo-1,6-dihydropyridazin-3-yl)pyrrolidin-3-yl]carbonyl}-1,4-diazocane-1-carboxylate] | 54.2 | 1220
COc1ccc([C@@H]2CN(c3ccc(=O)[nH]n3)C[C@H]2C(=O)N2CCC[C@@H](c3ccc(Cl)cc3)N(C(C)=O)CC2)c(F)c1 [Example 68, 6-[(3S,4R)-3-{[4-acetyl-5S-(4-chlorophenyl)-1,4-diazocan-1-yl]carbonyl}-4-(2-fluoro-4-methoxyphenyl)pyrrolidin-1-yl]pyridazin-3(2H)-one] | 29.5 | 728
COc1ccc([C@@H]2CN(C(C)(C)C)C[C@H]2C(=O)N2CCC[C@@H](c3ccc(Cl)cc3)N(C(C)=O)CC2)c(F)c1 [Example 70] | 36 | 4040
CS(=O)(=O)N1CCN(C(=O)C2CN(c3ccc(=O)[nH]n3)CC2c2ccc(F)cc2F)CCCC1c1ccc(F)cc1 (stereo not shown) [Example 78] | 49 | 3320
COC(=O)N1CCN(C(=O)[C@@H]2CN(C(C)(C)C)C[C@H]2c2ccc(OC)cc2F)CCCC1c1ccc(Cl)cc1 (stereo partly shown) [Example 91] | 33 | 7380
COC(=O)N1CCN(C(=O)[C@@H]2CN(c3ccc(=O)n(C)n3)C[C@H]2c2ccc(OC)cc2F)CCC[C@H]1c1ccc(Cl)cc1 [Example 118] | 48 | 8200
COC(=O)N1CCN(C(=O)[C@@H]2CN(c3ccc(=O)n(C)n3)C[C@H]2c2ccc(OC)cc2F)CCC[C@@H]1c1ccc(Cl)cc1 [Example 119, methyl 8R-(4-chlorophenyl)-4-{[(3S,4R)-4-(2-fluoro-4-methoxyphenyl)-1-(1-methyl-6-oxo-1,6-dihydropyridazin-3-yl)pyrrolidin-3-yl]carbonyl}-1,4-diazocane-1-carboxylate] | 54.5 | 11200

These reach a lower EC50 (human MC3 receptors). Values come first.

inhibition at 3 µM (CYP3A4) [%] | EC50 (human MC3 receptors) [nM] | SMILES
88 | 544 | CNC(=O)N1CCN(C(=O)[C@@H]2CN(c3cccnn3)C[C@H]2c2ccc(F)cc2F)CCCC1c1ccccc1 (mixture of isomers) [Example 73]
33.5 | 604 | CS(=O)(=O)N1CCN(C(=O)[C@@H]2CN(c3ccc(C#N)nn3)C[C@H]2c2ccc(F)cc2F)CCCC1c1ccc(Cl)cc1 (mixture of isomers) [Example 76]
83 | 114 | CCCC(=O)N1CCN(C(=O)[C@@H]2CN(c3cccnn3)C[C@H]2c2ccc(F)cc2F)CCCC1c1ccccc1 (mixture of isomers) [Example 101]
53.8 | 332 | CC(=O)N1CCN(C(=O)[C@@H]2CN(c3cccnn3)C[C@H]2c2ccc(F)cc2F)CCCC1c1ccccc1 (mixture of isomers) [Example 103]
54.2 | 300 | CC(=O)N1CCN(C(=O)[C@@H]2CN(c3ccc4nncn4n3)C[C@H]2c2ccc(Cl)cn2)CCC[C@H]1c1ccc(Cl)cc1 [Example 6, 6-[(3S,4S)-3-{[4-acetyl-5S-(4-chlorophenyl)-1,4-diazocan-1-yl]carbonyl}-4-(5-chloropyridin-2-yl)pyrrolidin-1-yl][1,2,4]triazolo[4,3-b]pyridazine]
29.5 | 177 | COc1ccc([C@@H]2CN(c3ccc(C#N)nn3)C[C@H]2C(=O)N2CCC[C@@H](c3ccc(Cl)cc3)N(C(C)=O)CC2)c(F)c1 [Example 67]
20.4 | 88.6 | CC(=O)N1CCN(C(=O)[C@@H]2CN(c3ccc(C#N)nn3)C[C@H]2c2ccc(Cl)cn2)CCC[C@H]1c1ccc(Cl)cc1 [Example 72]
53.8 | 456 | COC(=O)N1CCN(C(=O)[C@@H]2CN(c3ccc(=O)[nH]n3)C[C@H]2c2ccc(OC)cc2F)CCC[C@@H]1c1ccc(Cl)cc1 [Example 90, methyl 8R-(4-chlorophenyl)-4-{[(3S,4R)-4-(2-fluoro-4-methoxyphenyl)-1-(6-oxo-1,6-dihydropyridazin-3-yl)pyrrolidin-3-yl]carbonyl}-1,4-diazocane-1-carboxylate]
